Structure (SMILES) | melting point
Cc1[nH]c(C=C2C(=O)NN=C2C2CC2)c(C)c1CN [Example 132, 3-Cyclopropyl-4-[(4-aminomethyl-3,5-dimethylpyrrol-2-yl)methylene]-2-pyrazolin-5-one] | 217 to 219 °C
Cc1cc(C)c(C=C2C(=O)NN=C2c2nc3ccccc3s2)[nH]1 [Example 133, 3-(Benzothiazol-2-yl)-4-[(3,5-dimethylpyrrol-2-yl)methylene]-2-pyrazolin-5-one] | 295 to 297 °C
Cc1[nH]c(C=C2C(=O)NN=C2c2nc3ccccc3s2)c(C)c1CN1CCOCC1 [Example 134, 3-(Benzothiazol-2-yl)-4-[(3,5-dimethyl-4-morpholinomethylpyrrol-2-yl)methylene]-2-pyrazolin-5-one] | 285 °C (dec.)
CCc1c(C)[nH]c(C=C2C(=O)NN=C2c2cnccn2)c1C [Example 135, 4-[(3,5-Dimethyl-4-ethylpyrrol-2-yl)methylene]-3-pyrazinyl-2-pyrazolin-5-one] | 264 to 267 °C
CCOC(=O)c1c[nH]c(C=C2C(=O)NN=C2c2cnccn2)c1 [Example 136, 4-[(4-Ethoxycarbonylpyrrol-2-yl)methylene]-3-pyrazinyl-2-pyrazolin-5-one] | 155 to 157 °C
O=C1NN=C(c2cnccn2)C1=Cc1cc(C(=O)O)c[nH]1 [Example 137, 4-[(4-Carboxypyrrol-2-yl)methylene]-3-pyrazinyl-2-pyrazolin-5-one] | 230 to 232 °C
Cc1[nH]c(C=C2C(=O)NN=C2c2cnccn2)c(C)c1CNC(=O)C(F)(F)F [Example 139, 4-[(3,5-Dimethyl-4-trifluoroacetamidomethylpyrrol-2-yl)methylene]-3-pyrazinyl-2-pyrazolin-5-one] | 302 to 305 °C
CCOC(=O)c1c[nH]c(C=C2C(=O)NN=C2C2CC2)c1-c1ccccc1 [Example 140, 3-Cyclopropyl-4-[(4-ethoxycarbonyl-3-phenylpyrrol-2-yl)methylene]-2-pyrazolin-5-one] | 218 to 220 °C
Cc1[nH]c(C=C2C(=O)NN=C2c2ccco2)c(C)c1CN(C)C [Example 142, 4-[(3,5-Dimethyl-4-dimethylaminomethylpyrrol-2-yl)methylene]-3-(2-furyl)-2-pyrazolin-5-one] | 209 to 211 °C
Cc1[nH]c(C=C2C(=O)NN=C2c2cccs2)c(C)c1CN(C)C [Example 143, 4-[(3,5-Dimethyl-4-dimethylaminomethylpyrrol-2-yl)methylene]-3-(2-thienyl)-2-pyrazolin-5-one] | 208 to 210 °C
Cc1[nH]c(C=C2C(=O)NN=C2c2cccnc2)c(C)c1CN(C)C [Example 144, 4-[(3,5-Dimethyl-4-dimethylaminomethylpyrrol-2-yl)methylene]-3-(3-pyridyl)-2-pyrazolin-5-one] | 220 to 224 °C
CCOC(=O)c1c(C)[nH]c(C=C2C(=O)NN=C2c2ccccc2)c1C [Example 145, 4-[(3,5-Dimethyl-4-ethoxycarbonylpyrrol-2-yl)methylene]-3-phenyl-2-pyrazolin-5-one] | 216 to 217 °C
CCc1c(C)[nH]c(C=C2C(=O)NN=C2c2ccccc2)c1C [Example 146, 4-[(3,5-Dimethyl-4-ethylpyrrol-2-yl)methylene]-3-phenyl-2-pyrazolin-5-one] | 274 to 275 °C
CCOC(=O)c1c[nH]c(C=C2C(=O)NN=C2OCC)c1C(=O)OCC [Example 147, 4-[(3,4-Di(ethoxycarbonyl)pyrrol-2-yl)methylene]-3-ethoxy-2-pyrazolin-5-one] | 132 to 134 °C
CCOC(=O)c1c[nH]c(C=C2C(=O)NN=C2OCC)c1 [Example 148, 3-Ethoxy-4-[(4-ethoxycarbonylpyrrol-2-yl)methylene]-2-pyrazolin-5-one] | 212 to 216 °C

Next, values leading:

melting point | Structure (SMILES)
180 to 182 °C | CCOC(=O)c1c(C)[nH]c(C=C2C(=O)NN=C2CCc2ccccn2)c1C [Example 149, 4-[(3,5-Dimethyl-4-ethoxycarbonylpyrrol-2-yl)methylene]-3-(2-pyridylethyl)-2-pyrazolin-5-one]
168 to 170 °C | CCOC(=O)c1c(C)[nH]c(C=C2C(=O)NN=C2C(C)Cc2ccccc2)c1C (centres unmarked) [Example 150, 4-[(3,5-Dimethyl-4-ethoxycarbonylpyrrol-2-yl)methylene]-3-(1-methyl-2-phenylethyl)-2-pyrazolin-5-one]
310 to 312 °C | CCOC1=NNC(=O)C1=Cc1[nH]c(C)c(C(=O)O)c1C [Example 151, 4-[(4-Carboxy-3,5-dimethylpyrrol-2-yl)methylene]-3-ethoxy-2-pyrazolin-5-one]
208 to 210 °C | CCOC1=NNC(=O)C1=Cc1ccc([N+](=O)[O-])[nH]1 [Example 152, 3-Ethoxy-4-[(5-nitropyrrol-2-yl)methylene]-2-pyrazolin-5-one]
287 to 289 °C | CCOC1=NNC(=O)C1=Cc1cc([N+](=O)[O-])c[nH]1 [Example 153, 3-Ethoxy-4-[(4-nitropyrrol-2-yl)methylene]-2-pyrazolin-5-one]
290 to 293 °C | CCOC1=NNC(=O)C1=Cc1cc(C(=O)O)c[nH]1 [Example 154, 4-[(4-Carboxypyrrol-2-yl)methylene]-3-ethoxy-2-pyrazolin-5-one]
158 to 160 °C | CCOC1=NNC(=O)C1=Cc1[nH]c(C)c(C(=O)NCCN(C)C)c1C [Example 155, 4-{[3,5-Dimethyl-4-(2-dimethylaminoethylaminocarbonyl)pyrrol-2-yl)methylene}-3-ethoxy-2-pyrazolin-5-one]
225 to 227 °C | CCOC1=NNC(=O)C1=Cc1[nH]c(Cl)c(CC(=O)OC)c1C(=O)OC [Example 156, 4-[(5-Chloro-3-methoxycarbonyl-4-methoxycarbonylmethylpyrrol-2-yl)methylene]-3-ethoxy-2-pyrazolin-5-one]
255 to 257 °C | CCOC1=NNC(=O)C1=Cc1[nH]cc(C)c1CCC(=O)O [Example 157, 4-{[3-(2-Carboxyethyl)-4-methylpyrrol-2-yl]methylene}-3-ethoxy-2-pyrazolin-5-one]
232 to 234 °C | CCOC(=O)c1c(C)[nH]c(C=C2C(=O)NN=C2OCC)c1C [Example 158, 4-[(3,5-Dimethyl-4-ethoxycarbonylpyrrol-2-yl)methylene]-3-ethoxy-2-pyrazolin-5-one]
252 to 254 °C | CCOC(=O)c1c(C)[nH]c(C=C2C(=O)NN=C2C(F)(F)F)c1C [Example 160, 4-[(3,5-Dimethyl-4-ethoxycarbonylpyrrol-2-yl)methylene]-3-trifluoromethyl-2-pyrazolin-5-one]
255 to 257 °C | CCOC(=O)c1c(C)[nH]c(C=C2C(=O)NN=C2c2ccno2)c1C [Example 161, 4-[(3,5-Dimethyl-4-ethoxycarbonylpyrrol-2-yl)methylene]-3-(5-isoxazolyl)-2-pyrazolin-5-one]
214 to 216 °C | CCOC(=O)c1c(C)[nH]c(C=C2C(=O)NN=C2c2cccc(N)c2)c1C [Example 162, 3-(3-Aminophenyl)-4-[(3,5-Dimethyl-4-ethoxycarbonylpyrrol-2-yl)methylene]-2-pyrazolin-5-one]
255 to 257 °C | CCOC(=O)c1c[nH]c(C=C2C(=O)NN=C2c2cnccn2)c1-c1ccccc1 [Example 164, 4-[(4-Ethoxycarbonyl-3-phenylpyrrol-2-yl)methylene]-3-pyrazinyl-2-pyrazolin-5-one]
